Patent US20050159596A1, “Cyclic compounds and their use as complex ligands” (Basf Aktiengesellschaft, priority 2002, published 2005)

How the values were obtained:
[1] = Solubility in organic solvents; type: physicochemical; details: for solubility (in words): compared with methanol, ethanol and acetonitrile; for solubility: organic solvent or mixture; for solubility in organic solvents (in words): all organic solvents

| solubility (in words) ([1]; in chloroform) | solubility (in words) ([1]; in dimethylformide) | solubility ([1]; in acetonitrile) [µM] | solubility ([1]; in ethanol) [µM] | solubility ([1]; in methanol) [µM] | melting point [°C] | SMILES | solubility in organic solvents (in words) [1] |
| --- | --- | --- | --- | --- | --- | --- | --- |
| improved | improved | < 1 | < 1 | < 1 | 358 to 362 | c1cc(-c2cccc3nc(-c4nc5cccc(-c6cccc7ncoc67)c5o4)oc23)c2ocnc2c1 [Compound 13, 7,7′:2′,2″:7′″,7′″-Quaterbenzoxazole] |  |
|  |  |  |  |  |  | c1cc2c3[nH]c(nc3c1)-c1cccc3nc([nH]c13)-c1cccc3nc([nH]c13)-c1cccc3nc-2[nH]c13 [Compound 8, Cyclo-2,4′:2′,7″:2″4′″:2′″,7-quaterbenzimidazole] | even lower solubility in organic solvents than compound (5) |
|  |  |  |  |  |  | c1cc2c3oc(nc3c1)-c1cccc3nc(oc13)-c1cccc3nc(oc13)-c1cccc3nc-2oc13 [Compound 5, Cyclo-2,7′:2′,7″:2′″,7′″:2′″,7-quaterbenzoxazole] | very limited solubility |
